Laboratory results as given in ChEMBL document CHEMBL3880411, “Multikinase inhibitors for use in the treatment of cancer” (2009).
pIC50: −log10 of the molar value. The source made the active and inactive calls. No cut-off for these calls is given here.

Legend:
[1] = Antiproliferative activity against human RL cells after 96 hrs by MTT assay; type: functional, cell-based
[2] = biological target: Proto-oncogene tyrosine-protein kinase Src (Homo sapiens) (UniProt P12931); test: Inhibition of human c-Src assessed as remaining activity at 1 uM after 40 mins in presence of [gamma33P-ATP] by scintillation counting
[3] = biological target: Tyrosine-protein kinase Lck (Homo sapiens) (UniProt P06239); test: Inhibition of human Lck assessed as remaining activity at 0.1 uM after 40 mins in presence of [gamma33P-ATP] by scintillation counting
[4] = Cytotoxicity against human SK-MEL-2 cells expressing N-ras Q61R mutant assessed as reduction in cell viability after 96 hrs by CellTiter-Glo luminescence assay or methylene blue assay; type: functional, cell-based; details: SK-MEL-2, 96 h
[5] = biological target: Tyrosine-protein kinase ABL1 (Homo sapiens) (UniProt P00519); test: Inhibition of human Abl assessed as remaining activity at 0.1 uM after 40 mins in presence of [gamma33P-ATP] by scintillation counting
[6] = Cytotoxicity against human MDA-MB-435 cells expressing B-RAF V600E mutant assessed as reduction in cell viability after 96 hrs by CellTiter-Glo luminescence assay or methylene blue assay; type: functional, cell-based; details: MDA-MB-435, 96 h
[7] = Cytotoxicity against human SK-MEL-24 cells expressing B-RAF V600E mutant assessed as reduction in cell viability after 96 hrs by CellTiter-Glo luminescence assay or methylene blue assay; type: functional, cell-based; details: SK-MEL-24, 96 h
[8] = Antiproliferative activity against human HL60 cells after 96 hrs by MTT assay; type: functional, cell-based; details: HL-60, 96 h
[9] = biological target: Tyrosine-protein kinase Lck (Homo sapiens) (UniProt P06239); test: Inhibition of human Lck assessed as remaining activity at 1 uM after 40 mins in presence of [gamma33P-ATP] by scintillation counting
[10] = biological target: Proto-oncogene tyrosine-protein kinase Src (Homo sapiens) (UniProt P12931); test: Inhibition of human c-Src assessed as remaining activity at 0.1 uM after 40 mins in presence of [gamma33P-ATP] by scintillation counting
[11] = biological target: Nuclear factor NF-kappa-B complex (Homo sapiens) (UniProt Q00653+P19838+Q04206); test: Inhibition of NFkappaB (unknown origin); type: protein-complex assay
[12] = Cytotoxicity against human MIAPaCa2 cells expressing K-ras G12C mutant assessed as reduction in cell viability after 96 hrs by CellTiter-Glo luminescence assay or methylene blue assay; type: functional, cell-based; details: MIA PaCa-2, 96 h
[13] = Cytotoxicity against human SK-MEL-3 cells expressing B-RAF V600E mutant assessed as reduction in cell viability after 96 hrs by CellTiter-Glo luminescence assay or methylene blue assay; type: functional, cell-based; details: SK-MEL3, 96 h
[14] = Antiproliferative activity against human MV4-11 cells expressing Flt-3 activation mutant after 96 hrs by CellTiter-Glo luminescence assay; type: functional, cell-based; details: MV4-11, 96 h
[15] = biological target: Tyrosine-protein kinase Yes (Homo sapiens) (UniProt P07947); test: Inhibition of human Yes assessed as remaining activity at 1 uM after 40 mins in presence of [gamma33P-ATP] by scintillation counting
[16] = biological target: BDNF/NT-3 growth factors receptor (Homo sapiens) (UniProt Q16620); test: Inhibition of human TrkB assessed as remaining activity at 1 uM after 40 mins in presence of [gamma33P-ATP] by scintillation counting
[17] = Cytotoxicity against human HCT116 cells expressing K-ras G13D mutant assessed as reduction in cell viability after 96 hrs by CellTiter-Glo luminescence assay or methylene blue assay; type: functional, cell-based; details: HCT-116, 96 h
[18] = Cytotoxicity against human HT-29 cells expressing B-RAF V600E mutant assessed as reduction in cell viability after 96 hrs by CellTiter-Glo luminescence assay or methylene blue assay; type: functional, cell-based; details: HT-29, 96 h
[19] = biological target: Tyrosine-protein kinase Fyn (Homo sapiens) (UniProt P06241); test: Inhibition of human Fyn assessed as remaining activity at 0.1 uM after 40 mins in presence of [gamma33P-ATP] by scintillation counting
[20] = biological target: Tyrosine-protein kinase Fyn (Homo sapiens) (UniProt P06241); test: Inhibition of human Fyn assessed as remaining activity at 1 uM after 40 mins in presence of [gamma33P-ATP] by scintillation counting
[21] = Antiproliferative activity against human U266 cells after 96 hrs by MTT assay; type: functional, cell-based; details: U-266, 96 h
[22] = Antiproliferative activity against human NALM6 cells after 96 hrs by MTT assay; type: functional, cell-based; details: NALM-6, 96 h
[23] = Cytotoxicity against human PANC1 cells expressing K-ras G12D mutant assessed as reduction in cell viability after 96 hrs by CellTiter-Glo luminescence assay or methylene blue assay; type: functional, cell-based; details: PANC-1, 96 h
[24] = system: LOX; test: Antitumor activity against human LOX cells expressing B-RAF V600E mutant xenografted in athymic mouse assessed as tumor regression at 10 to 40 mg/kg, iv administered for two weekly rounds of five injections daily with two-day rest period between the rounds measured twice weekly from first day of treatment; type: functional, organism-based
[25] = Cytotoxicity against human AU565 cells assessed as reduction in cell viability after 96 hrs by CellTiter-Glo luminescence assay or methylene blue assay; type: functional, cell-based; details: AU565, 96 h
[26] = biological target: Tyrosine-protein kinase Lyn (Homo sapiens) (UniProt P07948); test: Inhibition of human Lyn assessed as remaining activity at 0.1 uM after 40 mins in presence of [gamma33P-ATP] by scintillation counting
[27] = Cytotoxicity against human DU4475 cells expressing B-RAF V600E mutant assessed as reduction in cell viability after 96 hrs by CellTiter-Glo luminescence assay or methylene blue assay; type: functional, cell-based; details: DU-4475, 96 h
[28] = Cytotoxicity against human MDA-MB-231 cells expressing K-ras G13D mutant assessed as reduction in cell viability after 96 hrs by CellTiter-Glo luminescence assay or methylene blue assay; type: functional, cell-based; details: MDA-MB-231, 96 h
[29] = biological target: Tyrosine-protein kinase Yes (Homo sapiens) (UniProt P07947); test: Inhibition of human Yes assessed as remaining activity at 0.1 uM after 40 mins in presence of [gamma33P-ATP] by scintillation counting
[30] = Cytotoxicity against human MCF7 cells assessed as reduction in cell viability after 96 hrs by CellTiter-Glo luminescence assay or methylene blue assay; type: functional, cell-based; details: MCF7, 96 h
[31] = Cytotoxicity against human DLD1 cells expressing K-ras G13D mutant assessed as reduction in cell viability after 96 hrs by CellTiter-Glo luminescence assay or methylene blue assay; type: functional, cell-based; details: DLD-1, 96 h
[32] = biological target: BDNF/NT-3 growth factors receptor (Homo sapiens) (UniProt Q16620); test: Inhibition of human TrkB assessed as remaining activity at 0.1 uM after 40 mins in presence of [gamma33P-ATP] by scintillation counting
[33] = Cytotoxicity against human COLO205 cells expressing B-RAF V600E mutant assessed as reduction in cell viability after 96 hrs by CellTiter-Glo luminescence assay or methylene blue assay; type: functional, cell-based; details: COLO 205, 96 h
[34] = Antiproliferative activity against human RPMI8226 cells after 96 hrs by MTT assay; type: functional, cell-based; details: RPMI-8226, 96 h
[35] = Cytotoxicity against human MES-SA cells assessed as reduction in cell viability after 96 hrs by CellTiter-Glo luminescence assay or methylene blue assay; type: functional, cell-based
[36] = Cytotoxicity against human LoVo cells expressing K-ras G13D mutant assessed as reduction in cell viability after 96 hrs by CellTiter-Glo luminescence assay or methylene blue assay; type: functional, cell-based

Sequence of BDNF/NT-3 growth factors receptor (Homo sapiens) (Q16620 32-822 limits assumed): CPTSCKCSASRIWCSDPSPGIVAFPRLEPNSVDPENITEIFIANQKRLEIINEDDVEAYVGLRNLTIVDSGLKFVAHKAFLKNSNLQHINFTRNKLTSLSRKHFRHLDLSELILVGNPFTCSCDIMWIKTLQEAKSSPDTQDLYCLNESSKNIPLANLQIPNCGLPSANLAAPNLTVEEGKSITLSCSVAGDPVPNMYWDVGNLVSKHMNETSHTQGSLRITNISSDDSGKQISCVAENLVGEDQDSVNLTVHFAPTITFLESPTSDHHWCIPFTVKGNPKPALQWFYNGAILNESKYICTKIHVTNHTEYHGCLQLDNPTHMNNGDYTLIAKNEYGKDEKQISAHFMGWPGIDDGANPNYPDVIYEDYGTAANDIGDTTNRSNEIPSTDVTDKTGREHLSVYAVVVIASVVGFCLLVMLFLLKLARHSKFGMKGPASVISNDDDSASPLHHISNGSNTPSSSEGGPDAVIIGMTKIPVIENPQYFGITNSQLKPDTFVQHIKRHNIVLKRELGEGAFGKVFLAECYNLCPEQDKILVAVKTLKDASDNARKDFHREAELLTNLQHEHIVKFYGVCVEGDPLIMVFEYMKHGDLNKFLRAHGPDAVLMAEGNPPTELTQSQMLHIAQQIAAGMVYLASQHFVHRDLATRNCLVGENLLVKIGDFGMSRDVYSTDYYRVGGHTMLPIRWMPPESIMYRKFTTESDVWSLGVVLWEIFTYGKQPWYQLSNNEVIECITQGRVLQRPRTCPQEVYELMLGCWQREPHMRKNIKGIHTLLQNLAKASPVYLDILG
Sequence of Tyrosine-protein kinase Lck (Homo sapiens) (P06239 2-509 limits assumed): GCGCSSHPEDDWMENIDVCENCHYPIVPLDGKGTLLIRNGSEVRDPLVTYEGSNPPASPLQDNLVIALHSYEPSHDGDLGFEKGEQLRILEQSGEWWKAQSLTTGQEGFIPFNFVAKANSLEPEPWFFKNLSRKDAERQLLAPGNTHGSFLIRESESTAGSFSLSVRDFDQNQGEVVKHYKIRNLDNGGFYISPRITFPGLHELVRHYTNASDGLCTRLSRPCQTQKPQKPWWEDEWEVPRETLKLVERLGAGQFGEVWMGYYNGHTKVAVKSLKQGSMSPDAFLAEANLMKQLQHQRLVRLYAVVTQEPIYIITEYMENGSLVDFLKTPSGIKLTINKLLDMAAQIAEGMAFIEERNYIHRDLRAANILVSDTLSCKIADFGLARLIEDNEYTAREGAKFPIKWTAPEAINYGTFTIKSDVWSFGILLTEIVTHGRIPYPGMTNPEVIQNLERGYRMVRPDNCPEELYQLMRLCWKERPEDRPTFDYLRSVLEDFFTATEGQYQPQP
Sequence of Tyrosine-protein kinase Yes (Homo sapiens) (P07947 2-543 limits assumed): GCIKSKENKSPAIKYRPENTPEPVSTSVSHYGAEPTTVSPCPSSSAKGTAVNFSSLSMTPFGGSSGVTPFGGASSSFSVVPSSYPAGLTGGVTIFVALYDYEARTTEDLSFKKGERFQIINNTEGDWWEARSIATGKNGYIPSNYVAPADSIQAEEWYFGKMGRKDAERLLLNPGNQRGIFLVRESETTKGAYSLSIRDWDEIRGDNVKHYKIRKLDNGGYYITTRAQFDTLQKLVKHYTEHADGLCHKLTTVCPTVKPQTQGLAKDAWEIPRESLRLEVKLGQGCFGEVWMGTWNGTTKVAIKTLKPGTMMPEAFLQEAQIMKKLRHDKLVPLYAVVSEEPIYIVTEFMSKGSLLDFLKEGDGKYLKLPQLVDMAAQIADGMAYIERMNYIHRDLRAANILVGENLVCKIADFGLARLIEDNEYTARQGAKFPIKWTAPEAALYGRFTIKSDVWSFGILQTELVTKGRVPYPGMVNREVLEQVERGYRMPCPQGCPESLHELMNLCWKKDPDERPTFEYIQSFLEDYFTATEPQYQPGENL
Sequence of Tyrosine-protein kinase Fyn (Homo sapiens) (P06241 2-537 limits assumed): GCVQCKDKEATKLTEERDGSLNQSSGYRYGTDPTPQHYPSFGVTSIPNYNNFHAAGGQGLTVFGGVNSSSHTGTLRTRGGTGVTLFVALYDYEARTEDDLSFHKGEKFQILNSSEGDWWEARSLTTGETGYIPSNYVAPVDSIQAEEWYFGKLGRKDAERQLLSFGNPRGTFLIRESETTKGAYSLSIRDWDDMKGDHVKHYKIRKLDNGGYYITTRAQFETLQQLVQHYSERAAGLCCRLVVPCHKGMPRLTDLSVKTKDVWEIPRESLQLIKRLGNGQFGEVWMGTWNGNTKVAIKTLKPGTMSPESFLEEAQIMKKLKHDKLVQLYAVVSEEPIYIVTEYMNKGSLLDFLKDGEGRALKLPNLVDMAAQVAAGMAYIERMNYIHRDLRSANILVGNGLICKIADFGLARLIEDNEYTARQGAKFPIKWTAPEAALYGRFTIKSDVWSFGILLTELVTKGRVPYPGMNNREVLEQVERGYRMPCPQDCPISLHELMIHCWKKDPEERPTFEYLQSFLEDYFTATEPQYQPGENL
Sequence of Proto-oncogene tyrosine-protein kinase Src (Homo sapiens) (P12931 2-536 limits assumed): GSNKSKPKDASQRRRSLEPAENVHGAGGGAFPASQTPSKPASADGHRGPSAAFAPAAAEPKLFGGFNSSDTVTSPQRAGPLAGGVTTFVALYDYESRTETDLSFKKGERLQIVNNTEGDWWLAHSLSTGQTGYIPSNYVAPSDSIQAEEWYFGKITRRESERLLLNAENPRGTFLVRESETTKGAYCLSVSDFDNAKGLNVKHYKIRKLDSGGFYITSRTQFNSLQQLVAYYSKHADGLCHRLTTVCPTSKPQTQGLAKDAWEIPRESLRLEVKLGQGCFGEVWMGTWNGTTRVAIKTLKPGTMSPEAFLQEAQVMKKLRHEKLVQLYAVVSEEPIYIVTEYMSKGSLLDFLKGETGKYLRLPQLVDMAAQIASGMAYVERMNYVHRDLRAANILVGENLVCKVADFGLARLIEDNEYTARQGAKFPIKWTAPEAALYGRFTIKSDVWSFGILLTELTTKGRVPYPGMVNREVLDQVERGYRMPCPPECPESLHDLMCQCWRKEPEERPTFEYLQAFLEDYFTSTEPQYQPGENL
Sequence of Tyrosine-protein kinase Lyn (Homo sapiens) (P07948 2-512 limits assumed): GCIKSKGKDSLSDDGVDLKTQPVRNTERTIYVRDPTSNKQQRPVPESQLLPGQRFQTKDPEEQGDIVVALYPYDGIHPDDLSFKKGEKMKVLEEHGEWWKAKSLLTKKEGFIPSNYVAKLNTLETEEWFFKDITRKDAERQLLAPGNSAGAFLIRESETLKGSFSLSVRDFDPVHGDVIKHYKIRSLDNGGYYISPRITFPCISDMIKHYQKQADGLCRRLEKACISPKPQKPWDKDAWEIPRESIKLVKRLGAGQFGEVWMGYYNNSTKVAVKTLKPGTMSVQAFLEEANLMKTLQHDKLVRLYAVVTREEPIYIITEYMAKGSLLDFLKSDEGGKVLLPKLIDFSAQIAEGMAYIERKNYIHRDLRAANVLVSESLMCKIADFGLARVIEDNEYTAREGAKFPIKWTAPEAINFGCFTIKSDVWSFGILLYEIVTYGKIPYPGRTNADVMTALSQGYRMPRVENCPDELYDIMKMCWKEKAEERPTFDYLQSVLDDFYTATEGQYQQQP
Sequence of Tyrosine-protein kinase ABL1 (Homo sapiens) (P00519 whole entry): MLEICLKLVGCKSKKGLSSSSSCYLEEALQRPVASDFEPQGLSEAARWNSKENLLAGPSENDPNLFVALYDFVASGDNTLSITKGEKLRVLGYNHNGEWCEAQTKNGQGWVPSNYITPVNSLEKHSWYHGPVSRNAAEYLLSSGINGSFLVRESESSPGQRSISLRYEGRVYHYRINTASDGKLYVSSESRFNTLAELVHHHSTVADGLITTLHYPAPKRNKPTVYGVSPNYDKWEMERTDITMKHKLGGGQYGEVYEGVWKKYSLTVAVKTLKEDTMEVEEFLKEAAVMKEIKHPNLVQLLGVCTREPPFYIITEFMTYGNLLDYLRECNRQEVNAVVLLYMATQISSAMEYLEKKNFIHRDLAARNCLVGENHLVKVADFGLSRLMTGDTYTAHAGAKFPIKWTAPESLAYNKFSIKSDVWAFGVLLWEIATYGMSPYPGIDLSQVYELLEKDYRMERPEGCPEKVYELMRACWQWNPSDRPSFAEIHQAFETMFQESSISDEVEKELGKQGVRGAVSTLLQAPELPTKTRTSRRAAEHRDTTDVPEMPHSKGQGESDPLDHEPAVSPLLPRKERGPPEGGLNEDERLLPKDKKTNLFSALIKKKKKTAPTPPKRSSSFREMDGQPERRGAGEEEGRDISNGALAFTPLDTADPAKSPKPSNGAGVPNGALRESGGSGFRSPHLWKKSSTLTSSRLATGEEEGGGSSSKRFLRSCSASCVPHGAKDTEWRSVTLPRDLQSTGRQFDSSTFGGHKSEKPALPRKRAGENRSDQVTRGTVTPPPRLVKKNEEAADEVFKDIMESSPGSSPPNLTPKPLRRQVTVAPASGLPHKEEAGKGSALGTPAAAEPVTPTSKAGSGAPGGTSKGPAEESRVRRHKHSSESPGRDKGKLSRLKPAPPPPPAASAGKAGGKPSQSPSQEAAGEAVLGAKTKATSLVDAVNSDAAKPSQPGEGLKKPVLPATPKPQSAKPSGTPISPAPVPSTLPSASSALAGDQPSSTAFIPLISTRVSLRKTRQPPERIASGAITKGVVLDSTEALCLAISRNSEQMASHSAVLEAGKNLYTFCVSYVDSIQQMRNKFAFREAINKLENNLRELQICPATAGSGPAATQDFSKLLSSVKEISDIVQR

Which results are given for CCNc1cc(O)c2c(c1)/C=C/C[C@H](O)[C@H](O)C(=O)/C=C\[C@@H](C)[C@H](C)OC2=O [E-6201]?
pIC50 [1]: 5.78; Activity [2]: 1%; Activity [3]: 27%; pIC50 [4]: 6.87; Activity [5]: 51%; pIC50 [6]: 7.15; pIC50 [7]: 7.18; pIC50 [8]: 7.22; Activity [9]: 0%; Activity [10]: 31%; inhibition [11]: Active; pIC50 [12]: 6.13; pIC50 [13]: 7.62; pIC50 [14]: 8.09; Activity [15]: 8%; Activity [16]: 4%; pIC50 [17]: 6.37; pIC50 [18]: 7.08; Activity [19]: 24%; Activity [20]: 0%; pIC50 [21]: 6.02; pIC50 [22]: 6.21; pIC50 [23]: < 5.00; Activity [24]: Active; pIC50 [25]: < 5.00; Activity [26]: 45%; pIC50 [27]: 7.28; pIC50 [28]: 6.81; Activity [29]: 54%; pIC50 [30]: < 5.00; pIC50 [31]: 6.19; Activity [32]: 24%; pIC50 [33]: 7.37; pIC50 [34]: < 5.15; pIC50 [35]: 5.13; pIC50 [36]: 6.88
